Source: patent US11564927B2, “Therapeutic compositions, combinations, and methods of use” (Verastem, Inc., priority 2015, dated 2023)

Tests used:
[1] = test system: Primary human CD8+ T-cells; test: CD8+ T-cell proliferation, BrdU incorporation; type: cell-based; settings: 72 hours, anti-CD3/anti-CD28 coated beads, BrdU incorporation (FIG. 1)
Description: Primary human CD8+ T-cells isolated from healthy donor PBMCs were incubated in the presence of anti-CD^3/anti-CD28 coated beads with increasing concentrations of VS-4718 or VS-6063 for 72-hours and assayed for BrdU incorporation as a measure of new DNA synthesis.
CD8+ T cells were isolated from fresh, healthy human PBMCs by negative immunomagnetic bead separation. Purified CD8+ T cells were plated on CD3-coated plates in the presence or absence of VS-4718, VS-6063, or GSK2256098 for 72 hours. Assay wells were pulsed with BrdU for the last 3-4 hours of culture and subjected to a BrdU-incorporation assay for the determination of actively proliferating cells. Data shown in FIG. 5 are presented as fold-change vs. DMSO control wells.

[2] = test system: syngeneic MC38 colorectal tumors; test: Survival of mice bearing MC38 colorectal tumors; type: in vivo, mouse
Description: Based on the inhibition of tumor-associated macrophages and enhancement of CD8+ T-cells, potentiation of FAK/PYK2 inhibitors on the anti-tumor efficacy of an anti-PD-1 monoclonal antibody in syngeneic mouse tumor models was investigated. Mice bearing established syngeneic MC38 colorectal tumors were treated with VS-4718 for 5 days before combination treatment with anti-PD1 antibody along with continued VS-4718 administration. Combination of VS-4718 with anti-PD1 extended the median overall survival to 42 days relative to 21, 25 and 28 day median overall survival with vehicle control, single agent anti-PD-1 and single agent VS-4718, respectively (FIG. 2).

SMILES | proliferation of CD8+ cytotoxic T-cells [1] | mice still surviving ([2]; day 56, MC38 model) | median overall survival ([2]; mice with established MC38 tumors, VS-4718 for 5 days before combination with anti-PD1 (FIG. 2)) [days]
Cc1nc(Nc2ncc(C(=O)Nc3c(C)cccc3Cl)s2)cc(N2CCN(CCO)CC2)n1 [dasatinib] | potently impair the proliferation | – | –
CC(=O)Nc1cccc(-n2c(=O)n(C3CC3)c(=O)c3c(Nc4ccc(I)cc4F)n(C)c(=O)c(C)c32)c1 [trametinib] | potently impair the proliferation | – | –
CNC(=O)c1ccccc1Nc1cc(Nc2ccc(N3CCOCC3)cc2OC)ncc1C(F)(F)F [VS-4718] | stimulate proliferation | no surviving mice | 28
